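Dose response: 5 concentrations. Exposure: 48 h. Format: 96-well plates. Endpoint: linear interpolation; highest concentration if not reached. TGI marks complete inhibition of growth.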
Key:
Experiment in all cases: DTP human tumour cell line panel, 48 h
786-0 renal = test system: 786-0 renal
A498 renal = test system: A498 renal
A549 NSCLC = test system: A549 NSCLC
ACHN renal = test system: ACHN renal
BT-549 breast = test system: BT-549 breast
CCRF-CEM leukemia = test system: CCRF-CEM leukemia
COLO 205 colon = test system: COLO 205 colon
DU-145 prostate = test system: DU-145 prostate
EKVX NSCLC = test system: EKVX NSCLC
HCC-2998 colon = test system: HCC-2998 colon
HCT-116 colon = test system: HCT-116 colon
HCT-15 colon = test system: HCT-15 colon
HL-60(TB) leukemia = test system: HL-60(TB) leukemia
HOP-62 NSCLC = test system: HOP-62 NSCLC
HOP-92 NSCLC = test system: HOP-92 NSCLC
HS 578T breast = test system: HS 578T breast
HT29 colon = test system: HT29 colon
IGROV1 ovarian = test system: IGROV1 ovarian
K-562 leukemia = test system: K-562 leukemia
KM12 colon = test system: KM12 colon
LOX IMVI melanoma = test system: LOX IMVI melanoma
M14 melanoma = test system: M14 melanoma
MALME-3M melanoma = test system: MALME-3M melanoma
MCF7 breast = test system: MCF7 breast
MDA-MB-231 breast = test system: MDA-MB-231 breast
MDA-MB-435 = test system: MDA-MB-435
MDA-N = test system: MDA-N
MOLT-4 leukemia = test system: MOLT-4 leukemia
NCI-H226 lung = test system: NCI-H226 lung
NCI-H23 lung = test system: NCI-H23 lung
NCI-H460 lung = test system: NCI-H460 lung
NCI-H522 lung = test system: NCI-H522 lung
NCI/ADR-RES ovarian = test system: NCI/ADR-RES ovarian
OVCAR-4 ovarian = test system: OVCAR-4 ovarian
OVCAR-5 ovarian = test system: OVCAR-5 ovarian
OVCAR-8 ovarian = test system: OVCAR-8 ovarian
PC-3 prostate = test system: PC-3 prostate
RPMI-8226 leukemia = test system: RPMI-8226 leukemia
RXF 393 renal = test system: RXF 393 renal
SF-268 CNS = test system: SF-268 CNS
SF-295 CNS = test system: SF-295 CNS
SF-539 CNS = test system: SF-539 CNS
SK-MEL-2 melanoma = test system: SK-MEL-2 melanoma
SK-MEL-28 melanoma = test system: SK-MEL-28 melanoma
SK-MEL-5 melanoma = test system: SK-MEL-5 melanoma
SK-OV-3 ovarian = test system: SK-OV-3 ovarian
SN12C renal = test system: SN12C renal
SNB-19 CNS = test system: SNB-19 CNS
SNB-75 CNS = test system: SNB-75 CNS
SR leukemia = test system: SR leukemia
SW-620 colon = test system: SW-620 colon
T-47D breast = test system: T-47D breast
TK-10 renal = test system: TK-10 renal
U251 CNS = test system: U251 CNS
UACC-257 melanoma = test system: UACC-257 melanoma
UACC-62 melanoma = test system: UACC-62 melanoma
UO-31 renal = test system: UO-31 renal
CAKI-1 renal = test system: CAKI-1 renal
OVCAR-3 ovarian = test system: OVCAR-3 ovarian

## COc1ccccc1Nc1nc(N)nc(N)c1N=O
786-0 renal
  TGI: > 100 µM
A498 renal
  TGI: > 100 µM
A549 NSCLC
  TGI: > 100 µM
ACHN renal
  TGI: > 100 µM
BT-549 breast
  TGI: > 100 µM
CCRF-CEM leukemia
  TGI: > 100 µM
COLO 205 colon
  TGI: > 100 µM
DU-145 prostate
  TGI: > 100 µM
EKVX NSCLC
  TGI: > 100 µM
HCC-2998 colon
  TGI: > 100 µM
HCT-116 colon
  TGI: > 100 µM
HCT-15 colon
  TGI: > 100 µM
HL-60(TB) leukemia
  TGI: > 100 µM
HOP-62 NSCLC
  TGI: > 100 µM
HOP-92 NSCLC
  TGI: > 100 µM
HS 578T breast
  TGI: > 100 µM
HT29 colon
  TGI: > 100 µM
IGROV1 ovarian
  TGI: > 100 µM
K-562 leukemia
  TGI: > 100 µM
KM12 colon
  TGI: > 100 µM
LOX IMVI melanoma
  TGI: > 100 µM
M14 melanoma
  TGI: > 100 µM
MALME-3M melanoma
  TGI: > 100 µM
MCF7 breast
  TGI: > 100 µM
MDA-MB-231 breast
  TGI: > 100 µM
MDA-MB-435
  TGI: > 100 µM
MDA-N
  TGI: > 100 µM
MOLT-4 leukemia
  TGI: > 100 µM
NCI-H226 lung
  TGI: > 100 µM
NCI-H23 lung
  TGI: > 100 µM
NCI-H460 lung
  TGI: > 100 µM
NCI-H522 lung
  TGI: > 100 µM
NCI/ADR-RES ovarian
  TGI: > 100 µM
OVCAR-4 ovarian
  TGI: > 100 µM
OVCAR-5 ovarian
  TGI: > 100 µM
OVCAR-8 ovarian
  TGI: > 100 µM
PC-3 prostate
  TGI: > 100 µM
RPMI-8226 leukemia
  TGI: > 100 µM
RXF 393 renal
  TGI: > 100 µM
SF-268 CNS
  TGI: > 100 µM
SF-295 CNS
  TGI: > 100 µM
SF-539 CNS
  TGI: > 100 µM
SK-MEL-2 melanoma
  TGI: > 100 µM
SK-MEL-28 melanoma
  TGI: > 100 µM
SK-MEL-5 melanoma
  TGI: > 100 µM
SK-OV-3 ovarian
  TGI: > 100 µM
SN12C renal
  TGI: > 100 µM
SNB-19 CNS
  TGI: > 100 µM
SNB-75 CNS
  TGI: > 100 µM
SR leukemia
  TGI: > 100 µM
SW-620 colon
  TGI: > 100 µM
T-47D breast
  TGI: > 100 µM
TK-10 renal
  TGI: > 100 µM
U251 CNS
  TGI: > 100 µM
UACC-257 melanoma
  TGI: > 100 µM
UACC-62 melanoma
  TGI: > 100 µM
UO-31 renal
  TGI: > 100 µM

## CCCCCCCCCCCCCCCCCCNc1ccn(C2OC(COP(=O)(O)OCC3OC(n4ccc(NC(=O)CCCCCCCCCCCCCCCCC)nc4=O)C(OC(C)=O)C3OC(C)=O)C(OC(C)=O)C2OC(C)=O)c(=O)n1 (configuration not stated)
786-0 renal
  TGI: > 100 µM
A498 renal
  TGI: > 100 µM
A549 NSCLC
  TGI: > 100 µM
ACHN renal
  TGI: > 100 µM
BT-549 breast
  TGI: > 100 µM
CAKI-1 renal
  TGI: > 100 µM
CCRF-CEM leukemia
  TGI: > 100 µM
COLO 205 colon
  TGI: > 100 µM
DU-145 prostate
  TGI: > 100 µM
EKVX NSCLC
  TGI: > 100 µM
HCC-2998 colon
  TGI: > 100 µM
HCT-116 colon
  TGI: > 100 µM
HCT-15 colon
  TGI: > 100 µM
HL-60(TB) leukemia
  TGI: > 100 µM
HOP-62 NSCLC
  TGI: > 100 µM
HS 578T breast
  TGI: > 100 µM
HT29 colon
  TGI: > 100 µM
IGROV1 ovarian
  TGI: > 100 µM
K-562 leukemia
  TGI: > 100 µM
KM12 colon
  TGI: > 100 µM
LOX IMVI melanoma
  TGI: > 100 µM
M14 melanoma
  TGI: > 100 µM
MALME-3M melanoma
  TGI: > 100 µM
MCF7 breast
  TGI: > 100 µM
MDA-MB-231 breast
  TGI: > 100 µM
MDA-MB-435
  TGI: > 100 µM
MDA-N
  TGI: > 100 µM
MOLT-4 leukemia
  TGI: > 100 µM
NCI-H226 lung
  TGI: > 100 µM
NCI-H23 lung
  TGI: > 100 µM
NCI-H460 lung
  TGI: > 100 µM
NCI-H522 lung
  TGI: > 100 µM
NCI/ADR-RES ovarian
  TGI: > 100 µM
OVCAR-3 ovarian
  TGI: > 100 µM
OVCAR-4 ovarian
  TGI: > 100 µM
OVCAR-5 ovarian
  TGI: > 100 µM
OVCAR-8 ovarian
  TGI: > 100 µM
PC-3 prostate
  TGI: > 100 µM
RPMI-8226 leukemia
  TGI: > 100 µM
RXF 393 renal
  TGI: > 100 µM
SF-268 CNS
  TGI: > 100 µM
SF-295 CNS
  TGI: > 100 µM
SF-539 CNS
  TGI: > 100 µM
SK-MEL-2 melanoma
  TGI: > 100 µM
SK-MEL-28 melanoma
  TGI: > 100 µM
SK-MEL-5 melanoma
  TGI: > 100 µM
SK-OV-3 ovarian
  TGI: > 100 µM
SN12C renal
  TGI: > 100 µM
SNB-19 CNS
  TGI: > 100 µM
SNB-75 CNS
  TGI: > 100 µM
SR leukemia
  TGI: > 100 µM
SW-620 colon
  TGI: > 100 µM
T-47D breast
  TGI: > 100 µM
TK-10 renal
  TGI: > 100 µM
U251 CNS
  TGI: > 100 µM
UACC-257 melanoma
  TGI: > 100 µM
UACC-62 melanoma
  TGI: > 100 µM
UO-31 renal
  TGI: > 100 µM

## O=C(O)CN(CCNC(=O)OCC1c2ccccc2-c2ccccc21)CCNC(=O)OCC1c2ccccc2-c2ccccc21
786-0 renal
  TGI: 36 µM
A549 NSCLC
  TGI: 49.1 µM
ACHN renal
  TGI: 35.1 µM
BT-549 breast
  TGI: 67.4 µM
CCRF-CEM leukemia
  TGI: 63 µM
COLO 205 colon
  TGI: 40.7 µM
DU-145 prostate
  TGI: 35.8 µM
EKVX NSCLC
  TGI: 52.5 µM
HCC-2998 colon
  TGI: 51.3 µM
HCT-116 colon
  TGI: 31.9 µM
HCT-15 colon
  TGI: 70.3 µM
HL-60(TB) leukemia
  TGI: 50.1 µM
HOP-62 NSCLC
  TGI: 44.7 µM
HOP-92 NSCLC
  TGI: 42.7 µM
HS 578T breast
  TGI: > 100 µM
HT29 colon
  TGI: 32.9 µM
IGROV1 ovarian
  TGI: 45.7 µM
K-562 leukemia
  TGI: 39.9 µM
KM12 colon
  TGI: 34.7 µM
LOX IMVI melanoma
  TGI: 32.4 µM
M14 melanoma
  TGI: 73.4 µM
MALME-3M melanoma
  TGI: 38.9 µM
MCF7 breast
  TGI: 40.2 µM
MDA-MB-231 breast
  TGI: 31.9 µM
MDA-MB-435
  TGI: 34.4 µM
MDA-N
  TGI: 36.7 µM
MOLT-4 leukemia
  TGI: 49.3 µM
NCI-H226 lung
  TGI: 81.2 µM
NCI-H23 lung
  TGI: 49.6 µM
NCI-H460 lung
  TGI: 41.2 µM
NCI-H522 lung
  TGI: 32.3 µM
NCI/ADR-RES ovarian
  TGI: > 100 µM
OVCAR-3 ovarian
  TGI: 35.6 µM
OVCAR-4 ovarian
  TGI: 64.4 µM
OVCAR-5 ovarian
  TGI: 96.3 µM
OVCAR-8 ovarian
  TGI: 37.2 µM
PC-3 prostate
  TGI: 49 µM
RPMI-8226 leukemia
  TGI: 76.1 µM
RXF 393 renal
  TGI: 67.7 µM
SF-268 CNS
  TGI: 39.8 µM
SF-295 CNS
  TGI: 54.7 µM
SF-539 CNS
  TGI: 46.7 µM
SK-MEL-2 melanoma
  TGI: 46.6 µM
SK-MEL-28 melanoma
  TGI: 42.1 µM
SK-MEL-5 melanoma
  TGI: 36.8 µM
SK-OV-3 ovarian
  TGI: 70.6 µM
SN12C renal
  TGI: 80.1 µM
SNB-19 CNS
  TGI: 73.4 µM
SNB-75 CNS
  TGI: 67.5 µM
SR leukemia
  TGI: 50.2 µM
SW-620 colon
  TGI: 42.3 µM
T-47D breast
  TGI: 49.9 µM
TK-10 renal
  TGI: 50.6 µM
U251 CNS
  TGI: 38.4 µM
UACC-257 melanoma
  TGI: 68.8 µM
UACC-62 melanoma
  TGI: 47.5 µM
UO-31 renal
  TGI: 37.5 µM

— PubChem BioAssay (NCI)
